{"source": "PubChem BioAssay (NCI)", "test_in_all_cases": "DTP human tumour cell line panel, 48 h", "key": {"[1]": {"test_system": "786-0 renal"}, "[2]": {"test_system": "A498 renal"}, "[3]": {"test_system": "A549 NSCLC"}, "[4]": {"test_system": "ACHN renal"}, "[5]": {"test_system": "BT-549 breast"}, "[6]": {"test_system": "CAKI-1 renal"}, "[7]": {"test_system": "CCRF-CEM leukemia"}, "[8]": {"test_system": "COLO 205 colon"}, "[9]": {"test_system": "DU-145 prostate"}, "[10]": {"test_system": "EKVX NSCLC"}, "[11]": {"test_system": "HCC-2998 colon"}, "[12]": {"test_system": "HCT-116 colon"}, "[13]": {"test_system": "HCT-15 colon"}, "[14]": {"test_system": "HOP-62 NSCLC"}, "[15]": {"test_system": "HOP-92 NSCLC"}, "[16]": {"test_system": "HS 578T breast"}, "[17]": {"test_system": "HT29 colon"}, "[18]": {"test_system": "IGROV1 ovarian"}, "[19]": {"test_system": "KM12 colon"}, "[20]": {"test_system": "LOX IMVI melanoma"}, "[21]": {"test_system": "M14 melanoma"}, "[22]": {"test_system": "MALME-3M melanoma"}, "[23]": {"test_system": "MCF7 breast"}, "[24]": {"test_system": "MDA-MB-231 breast"}, "[25]": {"test_system": "MDA-MB-435"}, "[26]": {"test_system": "NCI-H226 lung"}, "[27]": {"test_system": "NCI-H460 lung"}, "[28]": {"test_system": "NCI-H522 lung"}, "[29]": {"test_system": "NCI/ADR-RES ovarian"}, "[30]": {"test_system": "OVCAR-3 ovarian"}, "[31]": {"test_system": "OVCAR-4 ovarian"}, "[32]": {"test_system": "OVCAR-5 ovarian"}, "[33]": {"test_system": "OVCAR-8 ovarian"}, "[34]": {"test_system": "PC-3 prostate"}, "[35]": {"test_system": "RPMI-8226 leukemia"}, "[36]": {"test_system": "RXF 393 renal"}, "[37]": {"test_system": "SF-268 CNS"}, "[38]": {"test_system": "SF-295 CNS"}, "[39]": {"test_system": "SF-539 CNS"}, "[40]": {"test_system": "SK-MEL-2 melanoma"}, "[41]": {"test_system": "SK-MEL-28 melanoma"}, "[42]": {"test_system": "SK-MEL-5 melanoma"}, "[43]": {"test_system": "SK-OV-3 ovarian"}, "[44]": {"test_system": "SN12C renal"}, "[45]": {"test_system": "SNB-19 CNS"}, "[46]": {"test_system": "SNB-75 CNS"}, "[47]": {"test_system": "SW-620 colon"}, "[48]": {"test_system": "T-47D breast"}, "[49]": {"test_system": "TK-10 renal"}, "[50]": {"test_system": "U251 CNS"}, "[51]": {"test_system": "UACC-257 melanoma"}, "[52]": {"test_system": "UACC-62 melanoma"}, "[53]": {"test_system": "UO-31 renal"}}, "note": "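Interpolation was linear, between the two tested concentrations surrounding the appropriate level; five concentrations were tested over 48 hours in 96-well plates. GI50 is the concentration that inhibits growth by half. At the TGI there is no net growth.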", "data": [{"molecule": "Clc1ccc2oc3c(NCCCn4ccnc4)c4ccccc4nc3c2c1", "values": [{"measurement": "GI50", "setting": "[1]", "result": 16.3, "unit": "µM"}, {"measurement": "TGI", "setting": "[1]", "result": "> 100", "unit": "µM"}, {"measurement": "GI50", "setting": "[2]", "result": "> 100", "unit": "µM"}, {"measurement": "TGI", "setting": "[2]", "result": "> 100", "unit": "µM"}, {"measurement": "GI50", "setting": "[3]", "result": 34.6, "unit": "µM"}, {"measurement": "TGI", "setting": "[3]", "result": "> 100", "unit": "µM"}, {"measurement": "GI50", "setting": "[4]", "result": 4.84, "unit": "µM"}, {"measurement": "TGI", "setting": "[4]", "result": "> 100", "unit": "µM"}, {"measurement": "GI50", "setting": "[5]", "result": 16.9, "unit": "µM"}, {"measurement": "TGI", "setting": "[5]", "result": 51.4, "unit": "µM"}, {"measurement": "GI50", "setting": "[6]", "result": 11.4, "unit": "µM"}, {"measurement": "TGI", "setting": "[6]", "result": "> 100", "unit": "µM"}, {"measurement": "GI50", "setting": "[7]", "result": 8.66, "unit": "µM"}, {"measurement": "TGI", "setting": "[7]", "result": "> 100", "unit": "µM"}, {"measurement": "GI50", "setting": "[8]", "result": 10.9, "unit": "µM"}, {"measurement": "TGI", "setting": "[8]", "result": 37.7, "unit": "µM"}, {"measurement": "GI50", "setting": "[9]", "result": 23.3, "unit": "µM"}, {"measurement": "TGI", "setting": "[9]", "result": "> 100", "unit": "µM"}, {"measurement": "GI50", "setting": "[10]", "result": 51.7, "unit": "µM"}, {"measurement": "TGI", "setting": "[10]", "result": "> 100", "unit": "µM"}, {"measurement": "GI50", "setting": "[11]", "result": 12.7, "unit": "µM"}, {"measurement": "TGI", "setting": "[11]", "result": "> 100", "unit": "µM"}, {"measurement": "GI50", "setting": "[12]", "result": 4.48, "unit": "µM"}, {"measurement": "TGI", "setting": "[12]", "result": 31.3, "unit": "µM"}, {"measurement": "GI50", "setting": "[13]", "result": 11.7, "unit": "µM"}, {"measurement": "TGI", "setting": "[13]", "result": "> 100", "unit": "µM"}, {"measurement": "GI50", "setting": "[14]", "result": 16.6, "unit": "µM"}, {"measurement": "TGI", "setting": "[14]", "result": "> 100", "unit": "µM"}, {"measurement": "GI50", "setting": "[15]", "result": 1.78, "unit": "µM"}, {"measurement": "TGI", "setting": "[15]", "result": 22.7, "unit": "µM"}, {"measurement": "GI50", "setting": "[16]", "result": 22.1, "unit": "µM"}, {"measurement": "TGI", "setting": "[16]", "result": "> 100", "unit": "µM"}, {"measurement": "GI50", "setting": "[17]", "result": 6.14, "unit": "µM"}, {"measurement": "TGI", "setting": "[17]", "result": 23.6, "unit": "µM"}, {"measurement": "GI50", "setting": "[18]", "result": 21.9, "unit": "µM"}, {"measurement": "TGI", "setting": "[18]", "result": "> 100", "unit": "µM"}, {"measurement": "GI50", "setting": "[19]", "result": 15.4, "unit": "µM"}, {"measurement": "TGI", "setting": "[19]", "result": "> 100", "unit": "µM"}, {"measurement": "GI50", "setting": "[20]", "result": 10.4, "unit": "µM"}, {"measurement": "TGI", "setting": "[20]", "result": 39.1, "unit": "µM"}, {"measurement": "GI50", "setting": "[21]", "result": 28, "unit": "µM"}, {"measurement": "TGI", "setting": "[21]", "result": "> 100", "unit": "µM"}, {"measurement": "GI50", "setting": "[22]", "result": 39.2, "unit": "µM"}, {"measurement": "TGI", "setting": "[22]", "result": "> 100", "unit": "µM"}, {"measurement": "GI50", "setting": "[23]", "result": 16.1, "unit": "µM"}, {"measurement": "TGI", "setting": "[23]", "result": "> 100", "unit": "µM"}, {"measurement": "GI50", "setting": "[24]", "result": 17.5, "unit": "µM"}, {"measurement": "TGI", "setting": "[24]", "result": "> 100", "unit": "µM"}, {"measurement": "GI50", "setting": "[25]", "result": 25.9, "unit": "µM"}, {"measurement": "TGI", "setting": "[25]", "result": "> 100", "unit": "µM"}, {"measurement": "GI50", "setting": "[26]", "result": 26.8, "unit": "µM"}, {"measurement": "TGI", "setting": "[26]", "result": "> 100", "unit": "µM"}, {"measurement": "GI50", "setting": "[27]", "result": 5.26, "unit": "µM"}, {"measurement": "TGI", "setting": "[27]", "result": 21.4, "unit": "µM"}, {"measurement": "GI50", "setting": "[28]", "result": 15, "unit": "µM"}, {"measurement": "TGI", "setting": "[28]", "result": "> 100", "unit": "µM"}, {"measurement": "GI50", "setting": "[29]", "result": 7.77, "unit": "µM"}, {"measurement": "TGI", "setting": "[29]", "result": "> 100", "unit": "µM"}, {"measurement": "GI50", "setting": "[30]", "result": 23.8, "unit": "µM"}, {"measurement": "TGI", "setting": "[30]", "result": "> 100", "unit": "µM"}, {"measurement": "GI50", "setting": "[31]", "result": 11.8, "unit": "µM"}, {"measurement": "TGI", "setting": "[31]", "result": 41.2, "unit": "µM"}, {"measurement": "GI50", "setting": "[32]", "result": 24.9, "unit": "µM"}, {"measurement": "TGI", "setting": "[32]", "result": "> 100", "unit": "µM"}, {"measurement": "GI50", "setting": "[33]", "result": 12.7, "unit": "µM"}, {"measurement": "TGI", "setting": "[33]", "result": "> 100", "unit": "µM"}, {"measurement": "GI50", "setting": "[34]", "result": 24.9, "unit": "µM"}, {"measurement": "TGI", "setting": "[34]", "result": "> 100", "unit": "µM"}, {"measurement": "GI50", "setting": "[35]", "result": 16.5, "unit": "µM"}, {"measurement": "TGI", "setting": "[35]", "result": 55.9, "unit": "µM"}, {"measurement": "GI50", "setting": "[36]", "result": 4.65, "unit": "µM"}, {"measurement": "TGI", "setting": "[36]", "result": 23, "unit": "µM"}, {"measurement": "GI50", "setting": "[37]", "result": 15.2, "unit": "µM"}, {"measurement": "TGI", "setting": "[37]", "result": "> 100", "unit": "µM"}, {"measurement": "GI50", "setting": "[38]", "result": 17.9, "unit": "µM"}, {"measurement": "TGI", "setting": "[38]", "result": 66.6, "unit": "µM"}, {"measurement": "GI50", "setting": "[39]", "result": 12.8, "unit": "µM"}, {"measurement": "TGI", "setting": "[39]", "result": 28.2, "unit": "µM"}, {"measurement": "GI50", "setting": "[40]", "result": "> 100", "unit": "µM"}, {"measurement": "TGI", "setting": "[40]", "result": "> 100", "unit": "µM"}, {"measurement": "GI50", "setting": "[41]", "result": 34.4, "unit": "µM"}, {"measurement": "TGI", "setting": "[41]", "result": "> 100", "unit": "µM"}, {"measurement": "GI50", "setting": "[42]", "result": 80.6, "unit": "µM"}, {"measurement": "TGI", "setting": "[42]", "result": "> 100", "unit": "µM"}, {"measurement": "GI50", "setting": "[43]", "result": "> 100", "unit": "µM"}, {"measurement": "TGI", "setting": "[43]", "result": "> 100", "unit": "µM"}, {"measurement": "GI50", "setting": "[44]", "result": 9.75, "unit": "µM"}, {"measurement": "TGI", "setting": "[44]", "result": "> 100", "unit": "µM"}, {"measurement": "GI50", "setting": "[45]", "result": 27.8, "unit": "µM"}, {"measurement": "TGI", "setting": "[45]", "result": "> 100", "unit": "µM"}, {"measurement": "GI50", "setting": "[46]", "result": 20.4, "unit": "µM"}, {"measurement": "TGI", "setting": "[46]", "result": "> 100", "unit": "µM"}, {"measurement": "GI50", "setting": "[47]", "result": 5.13, "unit": "µM"}, {"measurement": "TGI", "setting": "[47]", "result": "> 100", "unit": "µM"}, {"measurement": "GI50", "setting": "[48]", "result": 36, "unit": "µM"}, {"measurement": "TGI", "setting": "[48]", "result": "> 100", "unit": "µM"}, {"measurement": "GI50", "setting": "[49]", "result": 79, "unit": "µM"}, {"measurement": "TGI", "setting": "[49]", "result": "> 100", "unit": "µM"}, {"measurement": "GI50", "setting": "[50]", "result": 26.5, "unit": "µM"}, {"measurement": "TGI", "setting": "[50]", "result": "> 100", "unit": "µM"}, {"measurement": "GI50", "setting": "[51]", "result": 39.9, "unit": "µM"}, {"measurement": "TGI", "setting": "[51]", "result": "> 100", "unit": "µM"}, {"measurement": "GI50", "setting": "[52]", "result": 19.2, "unit": "µM"}, {"measurement": "TGI", "setting": "[52]", "result": 45.5, "unit": "µM"}, {"measurement": "GI50", "setting": "[53]", "result": 13.2, "unit": "µM"}, {"measurement": "TGI", "setting": "[53]", "result": 67.4, "unit": "µM"}]}]}
